Measured values as given in US10071084B2, “Nanoparticle, method of preparating the same, and use of the nanoparticle” (Samsung Electronics Co., Ltd., priority 2013, dated 2018).

System: HepG2 liver cancer cells
Test: Cytotoxicity by released nanoparticles containing SRF and BSA: cell viability, CCK-8 kit
Format: cell-based
Details: Homo sapiens, 50 μM SRF dissolved in DMSO, 3 hours incubation at 37° C., then 3 days in fresh medium, relative to DMSO-treated cells
Procedure: Liposomes that were sonicated were incubated with cells to confirm the cell viability.
The liposomes of Example 4 were sonicated at a temperature of 25° C. for 16 minutes by using a pool-type sonicator (Branson).
The sonicated liposomes, unsonicated liposomes, 50 μM of SRF (Santa Cruz Biotechnology, Inc.) dissolved in dimethyl sulfoxide (DMSO) (Aldrich), or DMSO itself was added to about 5,000 HepG2 liver cancer cells, followed by being incubated at a temperature of 37° C. for 3 hours. Here, the medium used in the incubation was exchanged with fresh medium. The cells were incubated for at a temperature of 37° C. for 3 days, and number of the cells was counted by using a CCK-8 kit (Dojindo). The cell viability was relatively calculated with respect to the number of the cells that were treated with DMSO, and the results were shown in FIG. 7 (1: DMSO, 2: SRF dissolved in DMSO, 3: liposomes that are not sonicated, 4: liposomes that are sonicated for 16 minutes).

## CNC(=O)c1cc(Oc2ccc(NC(=O)Nc3ccc(Cl)c(C(F)(F)F)c3)cc2)ccn1 [SRF, sorafenib]
  viability at 50 µM: ~36%
